Results from patent publication US20090029953A1, “18-METHYL-19-NOR-17-PREGN-4-ENE-21,17-CARBOLACTONES, AS WELL AS PHARMACEUTICAL PREPARATIONS THAT CONTAIN THE LATTER” (priority 2004, published 2009).

Test system: ovariectomized pregnant rats
Assay: pregnancy maintenance test in rats
Type: in vivo
Conditions: subcutaneous once daily from day 8 of pregnancy, with estrone 5 μg/kg/day
Excerpt: Executing the Pregnancy Maintenance Test in Rats:
In pregnant rats, removal of the corpora lutea or castration induces abortion. By exogenous supplying of progestins (gestagens) in combination with a suitable dose of estrogen, pregnancy can be maintained. The pregnancy maintenance test in ovariectomized rats serves to determine peripheral gestagenic activity of a compound.
Rats are paired up during the proestrus overnight. Mating is monitored on the morning of the following day by vaginal smear inspection. The presence of sperm is considered in this case as day 1 of the beginning of pregnancy. On day 8 of pregnancy, the animals are ovariectomized under ether anesthesia. […]
At the end of the test (day 15 or day 21), the animals are sacrificed under CO2 atmosphere, and live fetuses (fetuses with beating hearts) and implantation sites (early resorptions and dead fetuses including autolysis and atrophic placentas) in both uterine horns are counted. […] In uteri without fetuses or implantation sites, the number of nidation sites is determined by staining with 10% ammonium sulfide solution. The pregnancy maintenance rate is calculated as the quotient of the number of living fetuses and the total number of nidation sites (both resorbed and dead fetuses as well as nidation sites). […]

SMILES | pregnancy-maintaining dose (ED50) [µg/kg/day]
CCC12CCC3C4CCC(=O)C=C4C4CC4C3C1C1CC1C21CCC(=O)O1 (stereo not drawn) [compound 3a, 18-Methyl-6α,7α-15β,16β-dimethylene-3-oxo-19-nor-17-pregn-4-ene-21,17-carbolactone] | 120
C[C@]12CCC(=O)C=C1[C@@H]1C[C@@H]1[C@H]1[C@@H]3[C@@H]4C[C@@H]4[C@@]4(CCC(=O)O4)[C@@]3(C)CC[C@@H]12 [drospirenone, 6β,7β-15β,16β-dimethylene-3-oxo-17-pregn-4-ene-21,17β-carbolactone] | 3500
